Data from the supplement of paper PMC10307832.

Experiments:
Experiment in all cases: relative viability (nuclei count vs DMSO), 5 days (fraction); higher = more cells survive
A-427 = test system: A-427
Summary of the method: (§1)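 One day after seeding in 1536-well plates, lung cancer cell lines were dosed by pin tool. Dosing was either single-drug or a fixed anchor-drug dose plus five library-drug doses (not always all listed) in √10 steps. After 5 days, nuclei were stained in one fix-and-stain step and counted on 4× images, and relative viability is the nuclei count of treated wells over that of vehicle wells, given as the median of duplicate plates.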

ABC-1 = test system: ABC-1
Summary of the method: as §1

CAL-12T = test system: CAL-12T
Summary of the method: as §1

H3255 = test system: H3255
Summary of the method: as §1

NCI-H1355 = test system: NCI-H1355
Summary of the method: as §1

NCI-H1437 = test system: NCI-H1437
Summary of the method: as §1

NCI-H1651 = test system: NCI-H1651
Summary of the method: as §1

NCI-H1666 = test system: NCI-H1666
Summary of the method: as §1

NCI-H1793 = test system: NCI-H1793
Summary of the method: as §1

NCI-H2009 = test system: NCI-H2009
Summary of the method: as §1

NCI-H2023 = test system: NCI-H2023
Summary of the method: as §1

NCI-H2087 = test system: NCI-H2087
Summary of the method: as §1

NCI-H23 = test system: NCI-H23
Summary of the method: as §1

NCI-H358 = test system: NCI-H358
Summary of the method: as §1

NCI-H522 = test system: NCI-H522
Summary of the method: as §1

NCI-H596 = test system: NCI-H596
Summary of the method: as §1

NCI-H727 = test system: NCI-H727
Summary of the method: as §1

NCI-H838 = test system: NCI-H838
Summary of the method: as §1

PC-14 = test system: PC-14
Summary of the method: as §1

SK-MES-1 = test system: SK-MES-1
Summary of the method: as §1

SW 1573 = test system: SW 1573
Summary of the method: as §1

UMC-11 = test system: UMC-11
Summary of the method: as §1

SMILES: Oc1nc(-c2ccc(C(F)(F)F)cc2)nc2c1CSCC2 [XAV939] + O=C(CCCCCCC(=O)Nc1ccccc1)NO [Vorinostat] (partner 1 µM)
- relative viability (A-427; first compound 0.08 µM): 0.804
- relative viability (A-427; first compound 0.253 µM): 0.869
- relative viability (A-427; first compound 0.8 µM): 0.895
- relative viability (A-427; first compound 2.53 µM): 0.745
- relative viability (ABC-1; first compound 0.253 µM): 0.767
- relative viability (ABC-1; first compound 0.8 µM): 1.12
- relative viability (ABC-1; first compound 2.53 µM): 0.568
- relative viability (CAL-12T; first compound 0.08 µM): 0.984
- relative viability (CAL-12T; first compound 0.253 µM): 0.483
- relative viability (CAL-12T; first compound 0.8 µM): 0.823
- relative viability (CAL-12T; first compound 2.53 µM): 0.381
- relative viability (H3255; first compound 0.08 µM): 0.809
- relative viability (H3255; first compound 0.253 µM): 0.692
- relative viability (H3255; first compound 0.8 µM): 0.648
- relative viability (H3255; first compound 2.53 µM): 0.712
- relative viability (NCI-H1355; first compound 0.08 µM): 0.688
- relative viability (NCI-H1355; first compound 0.253 µM): 0.546
- relative viability (NCI-H1355; first compound 0.8 µM): 0.552
- relative viability (NCI-H1355; first compound 2.53 µM): 0.445
- relative viability (NCI-H1437; first compound 0.08 µM): 0.834
- relative viability (NCI-H1437; first compound 0.253 µM): 0.649
- relative viability (NCI-H1437; first compound 0.8 µM): 0.62
- relative viability (NCI-H1437; first compound 2.53 µM): 0.477
- relative viability (NCI-H1651; first compound 0.08 µM): 0.546
- relative viability (NCI-H1651; first compound 0.253 µM): 0.529
- relative viability (NCI-H1651; first compound 0.8 µM): 0.555
- relative viability (NCI-H1651; first compound 2.53 µM): 0.512
- relative viability (NCI-H1666; first compound 0.08 µM): 0.978
- relative viability (NCI-H1666; first compound 0.253 µM): 0.889
- relative viability (NCI-H1666; first compound 0.8 µM): 0.906
- relative viability (NCI-H1666; first compound 2.53 µM): 1.15
- relative viability (NCI-H1793; first compound 0.08 µM): 0.952
- relative viability (NCI-H1793; first compound 0.253 µM): 0.573
- relative viability (NCI-H1793; first compound 0.8 µM): 0.937
- relative viability (NCI-H1793; first compound 2.53 µM): 0.733
- relative viability (NCI-H2009; first compound 0.08 µM): 0.754
- relative viability (NCI-H2009; first compound 0.253 µM): 0.709
- relative viability (NCI-H2009; first compound 0.8 µM): 0.743
- relative viability (NCI-H2009; first compound 2.53 µM): 0.536
- relative viability (NCI-H2023; first compound 0.08 µM): 0.795
- relative viability (NCI-H2023; first compound 0.253 µM): 0.552
- relative viability (NCI-H2023; first compound 0.8 µM): 0.574
- relative viability (NCI-H2023; first compound 2.53 µM): 0.461
- relative viability (NCI-H2087; first compound 0.08 µM): 0.978
- relative viability (NCI-H2087; first compound 0.253 µM): 0.561
- relative viability (NCI-H2087; first compound 0.8 µM): 0.654
- relative viability (NCI-H2087; first compound 2.53 µM): 0.594
- relative viability (NCI-H23; first compound 0.08 µM): 0.684
- relative viability (NCI-H23; first compound 0.8 µM): 0.66
- relative viability (NCI-H23; first compound 2.53 µM): 0.415
- relative viability (NCI-H358; first compound 0.08 µM): 0.796
- relative viability (NCI-H358; first compound 0.253 µM): 0.49
- relative viability (NCI-H358; first compound 0.8 µM): 0.658
- relative viability (NCI-H358; first compound 2.53 µM): 0.565
- relative viability (NCI-H522; first compound 0.08 µM): 1.17
- relative viability (NCI-H522; first compound 0.253 µM): 0.851
- relative viability (NCI-H522; first compound 0.8 µM): 0.718
- relative viability (NCI-H522; first compound 2.53 µM): 0.846
- relative viability (NCI-H596; first compound 0.08 µM): 0.642
- relative viability (NCI-H596; first compound 0.253 µM): 0.623
- relative viability (NCI-H596; first compound 0.8 µM): 0.587
- relative viability (NCI-H596; first compound 2.53 µM): 0.543
- relative viability (NCI-H727; first compound 0.08 µM): 1.25
- relative viability (NCI-H727; first compound 0.8 µM): 1
- relative viability (NCI-H727; first compound 2.53 µM): 1.02
- relative viability (NCI-H838; first compound 0.08 µM): 0.685
- relative viability (NCI-H838; first compound 0.253 µM): 0.609
- relative viability (NCI-H838; first compound 0.8 µM): 0.658
- relative viability (NCI-H838; first compound 2.53 µM): 0.558
- relative viability (PC-14; first compound 0.08 µM): 0.96
- relative viability (PC-14; first compound 0.253 µM): 0.622
- relative viability (PC-14; first compound 0.8 µM): 0.789
- relative viability (PC-14; first compound 2.53 µM): 0.598
- relative viability (SK-MES-1; first compound 0.08 µM): 1.1
- relative viability (SK-MES-1; first compound 0.253 µM): 0.954
- relative viability (SK-MES-1; first compound 0.8 µM): 0.92
- relative viability (SK-MES-1; first compound 2.53 µM): 0.831
- relative viability (SW 1573; first compound 0.08 µM): 0.922
- relative viability (SW 1573; first compound 0.253 µM): 0.8
- relative viability (SW 1573; first compound 0.8 µM): 0.542
- relative viability (SW 1573; first compound 2.53 µM): 0.373
- relative viability (UMC-11; first compound 0.08 µM): 0.364
- relative viability (UMC-11; first compound 0.253 µM): 0.267
- relative viability (UMC-11; first compound 0.8 µM): 0.305
- relative viability (UMC-11; first compound 2.53 µM): 0.274
